Where a name gives a salt, the structure may show the parent alone.
Assay: in vitro
Conditions: rat, gh3-tre-luc cells

Row | SMILES | CC50 at 24 h (AC50 (uM) modified / 1000) [µM] | other results
1 | CCCCN(CCCC)CCCCCCN(CCCC)CCCC [N,N,N',N'-Tetrabutyl-1,6-hexanediamine] | > 90 | –
2 | CCN(CC)c1ccc(C(=O)c2ccccc2C(=O)O)c(O)c1 [2-[4-(Diethylamino)-2-hydroxybenzoyl]benzoic acid] | > 90 | –
3 | OC12N=C(c3ccccc3)SC1Cc1cc(Cl)ccc12 (centres unmarked) [HMR1426] | 56.9 | –
4 | CCCCC(C)(O)C/C=C/[C@H]1[C@H](O)CC(=O)[C@@H]1CCCCCCC(=O)OC (mixture of isomers) [Misoprostol] | > 50 | –
5 | COc1ccc2c3c1O[C@H]1C(=O)CC[C@H]4[C@@H](C2)N(C)CC[C@]314 [Hydrocodone phosphate (2:3) monohydrate] | > 50 | –
6 | CCOc1ccc(/N=C(\C)Nc2ccc(OCC)cc2)cc1 [Phenacaine] | > 50 | –
7 | CCCCCc1cc(O)cc(O)c1 [Olivetol] | – | CC50 at 24 h (AC50 (uM) modified / 1000, Tox21_110001=Tox21_202349, viability, 1 nM T3 present, 24 h): 78.4 µM; CC50 at 24 h (AC50 (uM) modified / 1000, Tox21_110001=Tox21_303332, viability, 1 nM T3 present, 24 h): 75.4 µM
8 | CCN(CC)C(=O)c1cccc(C)c1 [DEET] | > 90 | –
9 | c1ccc(CN2CCNCC2)cc1 [1-Benzylpiperazine difumarate] | – | CC50 at 24 h (AC50 (uM) modified / 1000, Tox21_110001=Tox21_112882, viability, 1 nM T3 present, 24 h): > 200 µM
10 | COc1cc(C)nc(-n2nc(C)cc2OC)n1 [Epirizole] | > 20 | –
11 | Clc1ccc(CCC(Cn2ccnc2)Sc2c(Cl)cccc2Cl)cc1 (centres unmarked) [Butoconazole nitrate] | > 20 | –
12 | CC1COc2ccccc2N1 (centres unmarked) [3-Methyl-3,4-dihydro-2H-1,4-benzoxazine] | > 90 | –
13 | Clc1cccc(Cl)c1N=C1NCCN1 [Clonidine hydrochloride] | > 90 | –
14 | CC[C@@H](CO)NCCN[C@@H](CC)CO [Ethambutol dihydrochloride] | > 20 | –
15 | COc1cc2ncnc(Nc3ccc(F)c(Cl)c3)c2cc1OCCCN1CCOCC1 [Gefitinib] | 8.92 | –
16 | OCC(O)CO [Glycerol] | > 90 | –
17 | c1cnc2c(n1)CCCC2 [5,6,7,8-Tetrahydroquinoxaline] | > 90 | –
18 | CC(=O)CC(=O)Nc1ccc2[nH]c(=O)[nH]c2c1 [3-Oxo-N-(2-oxo-2,3-dihydro-1H-benzimidazol-5-yl)butanamide] | > 90 | –
19 | COc1c(Cl)ccc(Cl)c1C(=O)O [Dicamba] | > 90 | –
20 | CC(=O)Oc1ccc2c3c1O[C@H]1[C@@H](OC(C)=O)C=C[C@H]4[C@@H](C2)N(C)CC[C@@]341 [(-)-Heroin hydrochloride] | > 100 | –
21 | Nc1c2ccccc2nc2ccccc12 [9-Aminoacridine, monohydrochloride, monohydrate] | > 90 | –
22 | C[Si](NC1CCCCC1)(NC1CCCCC1)NC1CCCCC1 [N,N',N''-Tricyclohexyl-1-methylsilanetriamine] | > 90 | –
23 | CN1c2c(nc(N)[nH]c2=O)NCC1CNc1ccc(C(=O)N[C@@H](CCC(=O)O)C(=O)O)cc1 (some centres unmarked) [Disodium 5-methyltetrahydrofolate] | > 50 | –

Row | SMILES | CC50 at 24 h (AC50 (uM) modified / 1000) [µM] | other results
24 | Nc1ccn(C[C@@H](CO)OCP(=O)(O)O)c(=O)n1 [Cidofovir] | > 50 | –
25 | CC(C)(C)Cl [t-Butylchloride] | > 100 | –
26 | CC(C)(O)CCc1ccccc1 [2-Methyl-4-phenylbutan-2-ol] | > 90 | –
27 | COc1cc(Cl)ccc1Cl [2,5-Dichloroanisole] | > 90 | –
28 | CC(C)(C)c1ccc(S)cc1 [4-tert-Butylbenzenethiol] | > 90 | –
29 | CSc1ccc2c(c1)N(CCC1CCCCN1C)c1ccccc1S2 (centres unmarked) [Thioridazine hydrochloride] | 7.04 | –
30 | O=C1CCC(=O)N1Cl [N-Chlorosuccinimide] | > 90 | –
31 | Cc1ccc(S(=O)(=O)NC(=O)NC2CCCC2)cc1 [Tolpentamide] | > 50 | –
32 | Cc1cc(C)c(C)c(C)c1 [1,2,3,5-Tetramethylbenzene] | > 90 | –
33 | CCNC1(c2cccs2)CCCCC1=O (centres unmarked) [Tiletamine hydrochloride] | > 20 | –
34 | CCCCCCOc1ccc(C(=N)N(CCCC)CCCC)c2ccccc12 [Bunamidine hydrochloride] | 5.23 | –
35 | c1ccc2nc(N3CCNCC3)ccc2c1 [Quipazine maleate] | 36.9 | –
36 | O=C(c1ccccc1)c1ccc(O)cc1O [2,4-Dihydroxybenzophenone] | > 90 | –
37 | CNC(=O)OCC[N+](C)(C)C [Methylcarbamylcholine chloride] | – | CC50 at 24 h (AC50 (uM) modified / 1000, Tox21_110001=Tox21_111257, viability, 1 nM T3 present, 24 h): > 50 µM
38 | CNC(=O)C[C@@H](N)C(=O)N[C@@H](C(=O)N[C@@H]1C(=O)N2[C@@H]1SC(C)(C)[C@@H]2C(=O)O)c1ccc(O)cc1 [Aspoxicillin] | > 50 | –
39 | ClCC(Cl)(Cl)Cl [1,1,1,2-Tetrachloroethane] | – | CC50 at 24 h (AC50 (uM) modified / 1000, Tox21_110001=Tox21_201109, viability, 1 nM T3 present, 24 h): > 100 µM
40 | CCn1ccnc1CC1COc2ccccc2O1 (centres unmarked) [Imiloxan] | > 50 | –
41 | CCOP(=S)(OCC)Oc1cnc2ccccc2n1 [Quinalphos] | – | CC50 at 24 h (AC50 (uM) modified / 1000, Tox21_110001=Tox21_202028, viability, 1 nM T3 present, 24 h): > 90 µM
42 | CCCCCCCCCCCBr [1-Bromoundecane] | > 50 | –
43 | OCC(CO)(CO)COCC(CO)(CO)CO [Dipentaerythritol] | > 90 | –
44 | N[C@H](C(=O)O)c1ccc(O)cc1 [Oxfenicine] | > 50 | –
45 | CCCCNc1ccc(C(=O)OCCN(C)C)cc1 [Tetracaine hydrochloride] | > 20 | –
46 | CCCCCCCC/C=C\CCCCCCCC(=O)OC [Methyl (9Z)-octadec-9-enoate] | > 90 | –

Row | SMILES | CC50 at 24 h (AC50 (uM) modified / 1000) [µM] | other results
47 | Nc1ccc(Cl)cc1[N+](=O)[O-] [4-Chloro-2-nitroaniline] | > 90 | –
48 | Oc1ccc(Cl)cc1 [4-Chlorophenol] | > 90 | –
49 | CCN(CC)c1ccc(N=Nc2ccc(S(=O)(=O)N(C)C)cc2)c(S(=O)(=O)NCC[n+]2ccccc2)c1 [1-[2-({[5-Diethylamino)-2-{[4-(dimethylsulfamoyl)phenyl]diazenyl}phenyl]sulfonyl}amino)ethyl]pyridinium chloride] | > 50 | –
50 | FC(F)(F)c1ccccc1Cl [2-Chlorobenzotrifluoride] | > 90 | –
51 | CCN(CC)C(=O)C(C)Oc1cccc2ccccc12 (centres unmarked) [Napropamide] | > 90 | –
52 | O=S(=O)(O)CCS [Sodium 2-mercaptoethanesulfonate] | > 90 | –
53 | O=[N+]([O-])c1cccc2c([N+](=O)[O-])cccc12 [1,5-Dinitronaphthalene] | – | CC50 at 24 h (AC50 (uM) modified / 1000, Tox21_110001=Tox21_200953, viability, 1 nM T3 present, 24 h): > 90 µM
54 | CCC(=O)Oc1ccc2c(c1)CC[C@@H]1[C@@H]2CC[C@]2(C)[C@@H](OC(=O)CC)CC[C@@H]12 [Estradiol dipropionate] | > 50 | –
55 | CC[C@H](C)COC(=O)/C=C/c1ccc(N=Cc2ccc(OC)cc2)cc1 [(+)-2-Methylbutyl-4-methoxybenzyladine-4'-aminocyannate] | > 90 | –
56 | CC[C@H](OC(C)=O)C(C[C@H](C)NC)(c1ccccc1)c1ccccc1 [L-alpha-Acetyl-N-normethadol hydrochloride] | – | CC50 at 24 h (AC50 (uM) modified / 1000, Tox21_110001=Tox21_112831, viability, 1 nM T3 present, 24 h): 17.4 µM
57 | CN1[C@H]2CC[C@@H]1[C@@H](C(=O)O)[C@@H](OC(=O)c1ccccc1)C2 [Benzoylecgonine] | – | CC50 at 24 h (AC50 (uM) modified / 1000, Tox21_110001=Tox21_112607, viability, 1 nM T3 present, 24 h): > 50 µM; CC50 at 24 h (AC50 (uM) modified / 1000, Tox21_110001=Tox21_112853, viability, 1 nM T3 present, 24 h): > 100 µM
58 | O=C1NC2CCCCN2C12CCN(CCCN1c3ccccc3CCc3ccc(Cl)cc31)CC2 (centres unmarked) [Mosapramine] | 5.62 | –
59 | Cc1ccccc1CCl [1-(Chloromethyl)-2-methylbenzene] | > 90 | –
60 | Cc1cc(SC2=C(O)C[C@@](CCc3ccc(N)cc3)(C(C)C)OC2=O)c(C(C)(C)C)cc1CO [CI-1029] | > 90 | –
61 | CCC(C)(CC)c1cc(NC(=O)c2c(OC)cccc2OC)on1 [Isoxaben] | > 90 | –
62 | c1ccc2[nH]c(-c3cscn3)nc2c1 [Thiabendazole] | > 50 | –
63 | C[Si]1(C)O[Si](C)(C)O[Si](C)(C)O1 [Hexamethylcyclotrisiloxane] | > 90 | –
64 | CC(C)(O)c1ccccc1 [2-Phenylpropan-2-ol] | > 90 | –
65 | OC/C(Br)=C(\Br)CO [(2E)-2,3-Dibromo-2-butene-1,4-diol] | > 90 | –
66 | CC(=O)c1nccs1 [2-Acetylthiazole] | > 90 | –
67 | CC1=CC(O)CC(C)(C)C1 (centres unmarked) [3,5,5-Trimethyl-2-cyclohexen-1-ol] | > 90 | –
68 | C1CC(COCC2CO2)CCC1COCC1CO1 (centres unmarked) [2,2'-[Cyclohexane-1,4-diylbis(methanediyloxymethanediyl)]dioxirane] | 59.2 | –
69 | CC(C)=CCC/C(C)=C\C#N [(2Z)-3,7-Dimethylocta-2,6-dienenitrile] | > 90 | –
